Assay results taken from patent publication US12358907B2, “Substituted pyrrolidine amides III” (GRÜNENTHAL GMBH, priority 2019, dated 2025).

target: human glucocorticoid receptor (Homo sapiens (Human), UniProt P04150); assay: Human glucocorticoid receptor (hGR) ligand-binding assay (3H-dexamethasone competition, IM9 cytosol); details: read-out: % inhibition hGR at 1 μM
Experimental: Preferably, the glucocortitcoid receptor extracted from cytosol of IM9 cells is used for competitive radioligand binding assays to calculate percentage inhibition of the binding of radiolabeled ligand 3H-dexamethasone at the human glucocorticoid receptor.
The human lymphoblast cell line IM9 (ATCC, Bethesda, MD) was cultivated in RPMI 1640 media containing 10% fetal bovine serum, penicillin (100 U/ml), streptomycin (100 μg/ml), and 2 mM L-glutamine at 37° and 7% CO2 in a humidified incubator. Cells were centrifuged for 10 minutes at 1500 g and were washed in PBS and repelleted. Cell were then resuspended in homogenization buffer consisting of: 10 mM TES, 10 mM sodium molybdate, 1 mM EDTA, pH 7.4, 20 mM 2-mercaptoethanol, and 10% glycerol. Disruption of the cells was performed by nitrogen cavitation using 2×15 minutes at 600 to 750 psi nitrogen in a N2 cavitator at 0° C. The cell preparation was then centrifuged at 27,000 g for 15 minutes, and the resultant supernatant (=cytosol of IM9 cells) was centrifuged at 103,000 g for 60 minutes at 4° C. The amount of protein in the supernatant fraction was determined using a BCA assay kit and aliquots were snap frozen in a dry ice-acetone bath and stored at −70° C. Competitive binding assays were done in duplicate in homogenization buffer with a total volume of 200 μl. To this end, 1 mg of IM9 cytosol, 0.05 μCi (1.5 nM) of 3H-dexamethasone and unlabeled Example compounds as competitor compounds at 1 μM were mixed. The reaction was stopped after incubation at 0° C. for 16 to 18 hours by the addition of 100 μl of a charcoal-dextran mixture (2% activated charcoal, 0.5% dextran in 10 mM Tris, 1 mM EDTA, pH 7.4). Another incubation step at 0° C. for 10 minutes followed before the samples were centrifuged for 5 minutes at 8200 g. 100 μl of the supernatant) was finally assayed for radioactivity by liquid scintillationspectrometry, and percentage inhibition of 3H-dexamethasone binding was calculated.

Chain of human glucocorticoid receptor (P04150 whole entry): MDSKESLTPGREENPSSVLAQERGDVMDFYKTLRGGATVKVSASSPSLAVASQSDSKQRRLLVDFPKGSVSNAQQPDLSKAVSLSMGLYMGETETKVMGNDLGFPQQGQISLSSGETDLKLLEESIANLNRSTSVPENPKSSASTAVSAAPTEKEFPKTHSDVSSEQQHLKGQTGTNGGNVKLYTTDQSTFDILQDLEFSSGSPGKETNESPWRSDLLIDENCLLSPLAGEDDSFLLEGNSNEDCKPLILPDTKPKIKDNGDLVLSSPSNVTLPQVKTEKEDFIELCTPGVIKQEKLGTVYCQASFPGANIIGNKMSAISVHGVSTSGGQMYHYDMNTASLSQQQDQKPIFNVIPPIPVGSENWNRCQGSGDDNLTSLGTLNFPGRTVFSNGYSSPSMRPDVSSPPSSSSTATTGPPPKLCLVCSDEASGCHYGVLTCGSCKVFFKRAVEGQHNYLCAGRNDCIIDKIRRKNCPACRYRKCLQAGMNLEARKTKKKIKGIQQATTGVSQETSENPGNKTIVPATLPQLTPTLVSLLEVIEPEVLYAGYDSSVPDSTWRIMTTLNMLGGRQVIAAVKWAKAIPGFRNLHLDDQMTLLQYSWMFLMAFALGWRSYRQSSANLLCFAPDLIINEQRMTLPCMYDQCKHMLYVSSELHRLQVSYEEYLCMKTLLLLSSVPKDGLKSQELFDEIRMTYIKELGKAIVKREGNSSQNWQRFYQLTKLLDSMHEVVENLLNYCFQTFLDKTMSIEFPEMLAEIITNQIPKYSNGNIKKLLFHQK

Going from Cn1cc(-n2ncc3cc(N4C(=O)C5(CC5)[C@H](NC(=O)C5CC5)[C@H]4c4ccccc4)ccc32)ccc1=O (racemic) [Example 30, N-[rac-(6R,7S)-5-[1-(1-Methyl-6-oxo-1H-pyridin-3-yl)-1H-indazol-5-yl]-4-oxo-6-phenyl-5-azaspiro[2.4]heptan-7-yl]-cyclopropanecarboxylic acid amide] to Cn1cc(-n2ncc3cc(N4C(=O)C(C)(C)[C@@H](NC(=O)C(C)(F)F)[C@@H]4c4ccccc4)ccc32)ccc1=O [Example 8, N-[(2S,3R)-4,4-Dimethyl-1-[1-(1-methyl-6-oxo-1H-pyridin-3-yl)-1H-indazol-5-yl]-5-oxo-2-phenyl-pyrrolidin-3-yl]-2,2-difluoro-propionamide], the inhibition at 1 µM falls from 27% to 12%.

First: Cn1cc(-n2ncc3cc(N4C(=O)C(C)(C)[C@H](NC(=O)C(C)(F)F)[C@H]4c4ccccc4)ccc32)ccc1=O [Example 9, N-[(2R,3S)-4,4-Dimethyl-1-[1-(1-methyl-6-oxo-1H-pyridin-3-yl)-1H-indazol-5-yl]-5-oxo-2-phenyl-pyrrolidin-3-yl]-2,2-difluoro-propionamide]
Second: CC(F)(F)C(=O)N[C@@H]1[C@@H](c2ccccc2)N(c2ccc3c(cnn3-c3ccc(F)cc3)c2)C(=O)C1(C)C [Example 10, 2,2-Difluoro-N-[(2R,3S)-1-[1-(4-fluorophenyl)-1H-indazol-5-yl]-4,4-dimethyl-5-oxo-2-phenyl-pyrrolidin-3-yl]-propionamide]
The inhibition at 1 µM of the first is lower: 86% for the first, 100% for the second.

First: Cn1ccc(C(=O)N[C@@H]2[C@@H](c3ccccc3)N(c3ccc4c(cnn4-c4ccc(=O)n(C)c4)c3)C(=O)C2(C)C)n1 [Example 12, N-[(2R,3S)-4,4-Dimethyl-1-[1-(1-methyl-6-oxo-1H-pyridin-3-yl)-1H-indazol-5-yl]-5-oxo-2-phenyl-pyrrolidin-3-yl]-1-methyl-1H-pyrazole-3-carboxylic acid amide]
Second: Cn1cc(-n2ncc3cc(N4C(=O)C(C)(C)[C@H](NC(=O)c5cscn5)[C@H]4c4ccccc4)ccc32)ccc1=O [Example 17, N-[(2R,3S)-4,4-Dimethyl-1-[1-(1-methyl-6-oxo-1H-pyridin-3-yl)-1H-indazol-5-yl]-5-oxo-2-phenyl-pyrrolidin-3-yl]-thiazole-4-carboxylic acid amide]
The inhibition at 1 µM of the first is higher: 83% for the first, 80% for the second.

First: Cn1cc(-n2ncc3cc(N4C(=O)C(C)(C)[C@H](NC(=O)c5cnco5)[C@H]4c4ccccc4)ccc32)ccc1=O [Example 13, N-[(2R,3S)-4,4-Dimethyl-1-[1-(1-methyl-6-oxo-1H-pyridin-3-yl)-1H-indazol-5-yl]-5-oxo-2-phenyl-pyrrolidin-3-yl]-oxazole-5-carboxylic acid amide]
Second: Cn1cc(-n2ncc3cc(N4C(=O)C(C)(C)[C@@H](NC(=O)c5cnco5)[C@@H]4c4ccccc4)ccc32)ccc1=O [Example 21, N-[(2S,3R)-4,4-Dimethyl-1-[1-(1-methyl-6-oxo-1H-pyridin-3-yl)-1H-indazol-5-yl]-5-oxo-2-phenyl-pyrrolidin-3-yl]-oxazole-5-carboxylic acid amide]
The inhibition at 1 µM of the first is lower: 20% for the first, 22% for the second.

Going from Cc1nc(C(=O)N[C@@H]2[C@@H](c3ccccc3)N(c3ccc4c(cnn4-c4ccc(=O)n(C)c4)c3)C(=O)C2(C)C)no1 [Example 14, N-[(2R,3S)-4,4-Dimethyl-1-[1-(1-methyl-6-oxo-1H-pyridin-3-yl)-1H-indazol-5-yl]-5-oxo-2-phenyl-pyrrolidin-3-yl]-5-methyl-[1,2,4]oxadiazole-3-carboxylic acid amide] to Cc1ncsc1C(=O)N[C@@H]1[C@@H](c2ccccc2)N(c2ccc3c(cnn3-c3ccc(=O)n(C)c3)c2)C(=O)C1(C)C [Example 16, N-[(2R,3S)-4,4-Dimethyl-1-[1-(1-methyl-6-oxo-1H-pyridin-3-yl)-1H-indazol-5-yl]-5-oxo-2-phenyl-pyrrolidin-3-yl]-4-methyl-thiazole-5-carboxylic acid amide], the inhibition at 1 µM falls from 84% to 30%.

Going from Cn1cc(-n2ncc3cc(N4C(=O)C(C)(C)[C@H](NC(=O)c5cncs5)[C@H]4c4ccccc4)ccc32)ccc1=O [Example 15, N-[(2R,3S)-4,4-Dimethyl-1-[1-(1-methyl-6-oxo-1H-pyridin-3-yl)-1H-indazol-5-yl]-5-oxo-2-phenyl-pyrrolidin-3-yl]-thiazole-5-carboxylic acid amide] to Cc1scnc1C(=O)N[C@@H]1[C@@H](c2ccccc2)N(c2ccc3c(cnn3-c3ccc(=O)n(C)c3)c2)C(=O)C1(C)C [Example 18, N-[(2R,3S)-4,4-Dimethyl-1-[1-(1-methyl-6-oxo-1H-pyridin-3-yl)-1H-indazol-5-yl]-5-oxo-2-phenyl-pyrrolidin-3-yl]-5-methyl-thiazole-4-carboxylic acid amide], the inhibition at 1 µM falls from 87% to 29%.

target: glucocorticoid receptor (GAL4 DBD-GR) (Homo sapiens (Human), UniProt P04150); assay: GR cell-based assays (GRE agonist / GRE antagonist), CHO-Gal4/GR luciferase reporter; details: CHO-Gal4/GR reporter cells, agonist mode (EC50) or antagonist mode against beclometasone (IC50), 6 hour incubation
Sequence (P04150 524-758): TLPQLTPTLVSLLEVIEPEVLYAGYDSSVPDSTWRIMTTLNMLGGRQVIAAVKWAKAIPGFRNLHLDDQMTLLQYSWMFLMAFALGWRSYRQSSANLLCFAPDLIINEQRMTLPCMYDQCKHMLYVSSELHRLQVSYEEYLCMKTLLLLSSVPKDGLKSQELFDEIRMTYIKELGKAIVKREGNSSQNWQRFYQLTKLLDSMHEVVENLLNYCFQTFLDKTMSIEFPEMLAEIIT
How it was run: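 CHO cells stably carrying GAL4 DBD-GR ligand-binding-domain fusion and a GAL4-UAS firefly luciferase reporter were treated in Opti-MEM with 8 half-log concentrations from 10 μM to 0.003 μM (0.5% DMSO, quadruplicates). Antagonist mode measured repression of beclomethasone-induced signal. Luminescence after lysis gave EC50 or IC50.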

O=C(N[C@@H]1[C@@H](c2ccccc2)N(c2ccc3c(cnn3-c3ccc(F)cc3)c2)C(=O)[C@@H]1CC(F)F)C1CC1 [Example 132, N-((2R,3S,4R)-4-(2,2-difluoroethyl)-1-(1-(4-fluorophenyl)-1H-indazol-5-yl)-5-oxo-2-phenylpyrrolidin-3-yl)cyclopropanecarboxamide] and O=C(N[C@@H]1[C@@H](c2ccccc2)N(c2ccc3c(cnn3-c3ccc(F)cc3)c2)C(=O)C12CCC2)C1CC1 [Example 135, N-((7R,8S)-6-(1-(4-fluorophenyl)-1H-indazol-5-yl)-5-oxo-7-phenyl-6-azaspiro[3.4]octan-8-yl)cyclopropanecarboxamid] cannot be ordered by IC50: less than 100 nM for the first, less than 100 nM for the second.

same assay, conditions: read-out: IC50 or EC50

Compared with Cc1noc(C[C@@H]2C(=O)N(c3ccc4c(cnn4-c4ccc(F)cc4)c3)[C@H](c3ccccc3)[C@H]2NC(=O)C2CC2)n1 [Example 138, N-((2R,3S,4S)-1-(1-(4-fluorophenyl)-1H-indazol-5-yl)-4-((3-methyl-1,2,4-oxadiazol-5-yl)methyl)-5-oxo-2-phenylpyrrolidin-3-yl)cyclopropanecarboxamide], Cn1cc(C[C@@H]2C(=O)N(c3ccc4c(cnn4-c4ccc(F)cc4)c3)[C@H](c3ccccc3)[C@H]2NC(=O)C2CC2)cn1 [Example 139a, N-((2R,3S,4S)-1-(1-(4-fluorophenyl)-1H-indazol-5-yl)-4-((1-methyl-1H-pyrazol-4-yl)methyl)-5-oxo-2-phenylpyrrolidin-3-yl)cyclopropanecarboxamide] is higher in IC50: 100 to 1000 nM for the first, 1000 to 15000 nM for the second.

First: Cn1cc(C[C@H]2C(=O)N(c3ccc4c(cnn4-c4ccc(F)cc4)c3)[C@H](c3ccccc3)[C@H]2NC(=O)C2CC2)cn1 [Example 139b, N-((2R,3S,4R)-1-(1-(4-fluorophenyl)-1H-indazol-5-yl)-4-((1-methyl-1H-pyrazol-4-yl)methyl)-5-oxo-2-phenylpyrrolidin-3-yl)cyclopropanecarboxamide]
Second: O=C(N[C@@H]1[C@@H](c2ccccc2)N(c2ccc3c(cnn3-c3ccc(F)cc3)c2)C(=O)[C@@H]1Cc1nccs1)C1CC1 [Example 150, N-((2R,3S,4R)-1-(1-(4-fluorophenyl)-1H-indazol-5-yl)-5-oxo-2-phenyl-4-(thiazol-2-ylmethyl)pyrrolidin-3-yl)cyclopropanecarboxamide]
The IC50 of the first is higher: 1000 to 15000 nM for the first, 100 to 1000 nM for the second. The second is the more potent here.

C[C@@]1(c2ccc(Cl)s2)[C@@H](NC(=O)C2CC2)CC(=O)N1c1ccc2c(cnn2-c2ccc(F)cc2)c1 [Example 151, N-((2S,3S)-2-(5-chlorothiophen-2-yl)-1-(1-(4-fluorophenyl)-1H-indazol-5-yl)-2-methyl-5-oxopyrrolidin-3-yl)cyclopropanecarboxamide] was tested, and the IC50 was 100 to 1000 nM.
